Data: patent US6825165B1, “Betacellulin modification” (Takeda Chemical Industries, Ltd., priority 1998, dated 2004)
No end group written: not given here.

Assays:
[1] = test system: 3T3 A31-714 Clone 4 cells; assay: Cell growth promoting activity using 3T3 cells (3H-thymidine uptake), Example 25; format: cell-based, mouse; conditions: 3H-thymidine uptake into 3T3 A31-714 Clone 4; 100% is the maximum uptake of the 80-residue betacellulin
Experimental: The cell growth promoting activity was assayed by means of the ^3H-thymidine uptake into stationary 3T3 A31-714 Clone 4 (International Journal of Cancer, 12:463 (1973)) as described in Molecular Cell Biology, 8:588 (1988).
100 μL 3T3 A31-714 Clone 4 suspended to 1000 cells/mL using Dulbecco's modified Eagle MEM medium containing 5% bovine serum were seeded to 96 well plates and cultured for a day at 37° C. in carbon dioxide gas incubators (5% carbon dioxide gas, 95% air). 75 μL of supernatant was taken, and 100 μL of serum-free Dulbecco's modified Eagle MEM medium was added to adjust the serum concentration to 1%. Two more days of culture was followed by the addition of varying concentrations of the hBTC50, Mutein A, or Mutein B prepared in the above examples. 16 hours after these had been added, ^3H-thymidine (Amersham Pharmacia Biotech) was added in an amount of 0.25 μCi/well, after 4 hours the cells were washed 3 times with PBS, 100 μL of 5% SDS was added, and the cells were lysed. The cell lysate was transferred to scintillation vials, 1 mL of Scintillator A (Wako Pure Chemicals) was added, and the uptake of ^3H-thymidine into the cellwas assayed with a scintillation counter.

AR42J cells = assay: β cell differentiation promoting activity using AR42J cells (anti-insulin immunofluorescence), Example 26; format: cell-based; conditions: 5 days incubation; for Differentiation into insulin-producing β cells (stained cells under fluorescent microscope): anti-insulin antibody/FITC staining; for Incidence of insulin-producing cells: comparison between the proteins
Experimental: Cells of the AR42J cell line derived from pancreatic cancer induced by chemical carcinogens (Christophe, Am. J. Physiol., 266: G963 (1994)) were suspended to a concentration of 10^5 cells/mL in Dulbecco's modified Eagle MEM medium containing 10% fetal calf serum and one of hBTC50, Mutein A, Mutein B, or the 80-residue betacellulin (hBTC80) prepared in accordance with the method in Japanese Unexamined Patent Application (Kokai) H10-191989. 500 μL of these suspensions was inoculated on chamber slides and incubated for 5 days at 37° C. in carbon dioxide gas incubators (5% carbon dioxide gas, 95% air). After 5 days, the cells were washed once with PBS, fixed in 10% formaldehyde, and treated for 5 min with 0.1% Triton X-100. Block Ace (Snow Brand, Japan) was then added for 40 minutes of blocking at room temperature. Anti-insulin antibodies (by Advanced Immunochemicals) diluted with 10% Block Ace were added, and reacted for 40 minutes at room temperature. 0.1% Triton X-100 was added, the reaction solution was allowed to stand for 5 minutes at room temperature, and the cells were then washed three times with PBS. FITC (fluorescein isothiocyanate) labeled anti-mouse IgG antibodies (Cappel) diluted with 10% Block Ace were added, and a reaction was brought about for 40 minutes. 0.1% Triton X-100 was added, the reaction solution was allowed to stand for 5 minutes, the cells were then washed three times with PBS, and they were then observed under a fluorescent microscope.

[2] = test system: PLAP expression AR42J cells; assay: β cell differentiation promoting activity using PLAP expression AR42J cells (AR71-104 clone), Example 27; format: cell-based; conditions: 5 days, A405, 100% is the maximum absorbance when hBTC50 was added
Experimental: The differentiation promoting activity into β cells was also determined using AR42J cells transformed with the vector having alkaline phosphatase which had been ligated as a reporter downstream of the insulin promoter. Specifically, cells which have differentiated into β cells by addition of betacellulin produce alkaline phosphatase. As a result, by assaying the alkaline phosphatase activity, the differentiation promoting activity into β cells can be quantitatively assayed.
Cells of each clone were seeded on 24-well plates and cultured for 4 days with and without the addition of 20 ng/mL 80-residue BTC, the supernatant was collected and heat treated for 30 minutes at 65° C., and the alkaline phosphatase activity in the media was then assayed. Clones showing increased alkaline phosphatase activity with the addition of 80-residue betacellulin were selected. The AR71-104 clone was used below.
PLAP expression AR42J cells constructed in 3-2) were suspended to a concentration of 3×10^4 cells/mL in Dulbecco's modified Eagle MEM medium containing 10% fetal calf serum and on of varying concentrations of the hBTC50 or Mutein A or B prepared above. […] The samples were held for 10 minutes at 37° C., and 10 μL of 20 mg/mL p-nitrophenylphosphoric acid (Sigma) was added, a reaction was brought about for 16 hours at 37° C., and the absorbance at 405 nm (A405) was determined.

Substance | cell growth promoting activity ED50 [1] | Differentiation into insulin-producing β cells (stained cells under fluorescent microscope) (AR42J cells) | Incidence of insulin-producing cells (AR42J cells) | activity inducing differentiation to β cells ED50 [2]
Mutein A: hBTC50 with 3 amino acids (Asn, Pro, Ser) of the heregulin sequence inserted between Cys3-Cys4; SEQ ID NO: 44 (RKGHFSRCPKQYKHYCIKGRCRFVVAEQNPSTPSCVCDEGYIGARCERVDLFY; ends and bridges not checked; cysteine pairing not given here) | 0.6 nM | cells which had differentiated into insulin-producing β cells, were found | no differences in the incidence of insulin-producing cells | 0.5 nM
Mutein B: hBTC50 in which seven N terminal residues were substituted with five corresponding EGF residues; SEQ ID NO: 45 (NSDSECPKQYKHYCIKGRCRFVVAEQTPSCVCDEGYIGARCERVDLFY; ends and bridges not checked; cysteine pairing not given here) | >10.0 nM | cells which had differentiated into insulin-producing β cells, were found | no differences in the incidence of insulin-producing cells | 0.7 nM
